Among the test systems are EKVX NSCLC; HOP-62 NSCLC; COLO 205 colon; HCC-2998 colon; SR leukemia; RPMI-8226 leukemia; T-47D breast; CAKI-1 renal; MDA-N; OVCAR-4 ovarian; IGROV1 ovarian; MOLT-4 leukemia; U251 CNS; LOX IMVI melanoma; M14 melanoma; HCT-15 colon; NCI-H522 lung.
What all share (experiment): NCI-60 cell line screen, 48 h

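Each compound was tested at five concentrations against cells in 96-well plates for 48 hours. TGI denotes the concentration required for complete inhibition of growth.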

`COc1ccc(/C=C2/CCS(=O)(=O)c3ccc(C)cc3C2=O)cc1OC`: the TGI with EKVX NSCLC was 40.3 µM; in the assay with HOP-62 NSCLC it was above 100 µM; in the assay on COLO 205 colon it was 28.4 µM; in the assay on HCC-2998 colon, 19.6 µM; with SR leukemia it was 58.1 µM; with RPMI-8226 leukemia, 37.6 µM. Also, the TGI was 45.1 µM in the assay with T-47D breast; 47.5 µM in the assay with CAKI-1 renal; 49.5 µM in the assay on MDA-N; 66.9 µM in the assay with OVCAR-4 ovarian; 22.4 µM in the assay on IGROV1 ovarian; 49.6 µM with MOLT-4 leukemia. Also, the TGI with U251 CNS was 42 µM; in the assay on LOX IMVI melanoma it was 20.4 µM; in the assay with M14 melanoma, above 100 µM; in the assay with HCT-15 colon, 20.3 µM.

For the compound `Cc1cc(C)n(C(=O)CSc2nnc(SCC(=O)n3nc(C)cc3C)s2)n1`, the TGI with EKVX NSCLC, in the assay on HOP-62 NSCLC, in the assay on COLO 205 colon, in the assay on HCC-2998 colon, in the assay with SR leukemia and in the assay on RPMI-8226 leukemia was above 100 µM throughout. Besides, the TGI in the assay with T-47D breast, with CAKI-1 renal, in the assay with MDA-N, with OVCAR-4 ovarian, in the assay with MOLT-4 leukemia and in the assay with U251 CNS was above 100 µM throughout. The TGI in the assay with LOX IMVI melanoma, in the assay with M14 melanoma and in the assay with HCT-15 colon was above 100 µM each time.

`Cc1ccc(-c2cc(-c3c(C)nn(C)c(=O)c3N)[nH]n2)cc1`: the TGI in the assay on EKVX NSCLC, in the assay on COLO 205 colon, in the assay with HCC-2998 colon, in the assay with SR leukemia, in the assay with RPMI-8226 leukemia and in the assay with T-47D breast was above 100 µM each time. In addition, the TGI with CAKI-1 renal, in the assay on MDA-N, in the assay with OVCAR-4 ovarian, in the assay on IGROV1 ovarian, with MOLT-4 leukemia and in the assay with U251 CNS was above 100 µM throughout. The TGI in the assay on LOX IMVI melanoma, in the assay on M14 melanoma and in the assay with HCT-15 colon was above 100 µM in each case.

For `CN1C(=O)C23CCCCC2CC1(c1ccccc1)S3` (centres undefined), the TGI with EKVX NSCLC, in the assay on HOP-62 NSCLC, with COLO 205 colon, with SR leukemia, with RPMI-8226 leukemia and in the assay on T-47D breast was above 100 µM throughout. Moreover, the TGI in the assay with CAKI-1 renal, in the assay on MDA-N, in the assay with OVCAR-4 ovarian, in the assay on IGROV1 ovarian, in the assay on MOLT-4 leukemia and in the assay on U251 CNS was above 100 µM each time. For the same compound, the TGI in the assay on LOX IMVI melanoma, with M14 melanoma, with HCT-15 colon and with NCI-H522 lung was above 100 µM throughout.

Take `Oc1cc(CN2COc3ccccc32)c(O)cc1CNC1CCCCC1`: the TGI is 36.3 µM in the assay with EKVX NSCLC; above 100 µM with HOP-62 NSCLC; 31.2 µM in the assay on COLO 205 colon; 49.7 µM in the assay on SR leukemia; 64.5 µM in the assay with RPMI-8226 leukemia; 64.7 µM in the assay on T-47D breast. Moreover, the TGI is 67.5 µM with CAKI-1 renal; 32.2 µM in the assay on MDA-N; 52.2 µM in the assay with OVCAR-4 ovarian; above 100 µM in the assay with IGROV1 ovarian; 39.3 µM with MOLT-4 leukemia; 32.5 µM in the assay with U251 CNS. Besides, the TGI is 31.6 µM with LOX IMVI melanoma, above 100 µM with M14 melanoma, 47.6 µM in the assay with HCT-15 colon and 27.8 µM in the assay on NCI-H522 lung.

Turning to `CN(C)C(=O)C1CCN(Cc2c[nH]c3ccccc23)CC1`, the TGI in the assay on EKVX NSCLC, with HOP-62 NSCLC, in the assay on COLO 205 colon, in the assay on SR leukemia, in the assay with RPMI-8226 leukemia and in the assay on T-47D breast was above 100 µM throughout. For the same compound, the TGI in the assay on CAKI-1 renal, in the assay with MDA-N, with OVCAR-4 ovarian, in the assay with IGROV1 ovarian, with MOLT-4 leukemia and with U251 CNS was above 100 µM throughout. The TGI in the assay with LOX IMVI melanoma, with M14 melanoma, in the assay on HCT-15 colon and in the assay with NCI-H522 lung was above 100 µM in each case.

Take `CCN(CC)COC(=S)S`: the TGI is above 100 µM with EKVX NSCLC; above 100 µM in the assay on HOP-62 NSCLC; above 100 µM with COLO 205 colon; above 78.1 µM in the assay with HCC-2998 colon; 25.9 µM in the assay on SR leukemia; above 100 µM in the assay with T-47D breast. Also, the TGI was above 100 µM with CAKI-1 renal; above 100 µM with MDA-N; above 100 µM in the assay on OVCAR-4 ovarian; above 100 µM with IGROV1 ovarian; 69 µM in the assay on MOLT-4 leukemia; above 100 µM in the assay on U251 CNS. Besides, the TGI with LOX IMVI melanoma was above 100 µM; in the assay with M14 melanoma, above 100 µM; in the assay with HCT-15 colon, above 100 µM; in the assay on NCI-H522 lung it was above 94.7 µM.

As to `CCOC(=O)N1[C@@H]2CCC[C@@H]2C(=O)[C@@H]2CCC[C@@H]21`, the TGI in the assay with HOP-62 NSCLC, in the assay with COLO 205 colon, with HCC-2998 colon, with SR leukemia, with RPMI-8226 leukemia and in the assay with T-47D breast was above 100 µM each time. The TGI in the assay with CAKI-1 renal, with MDA-N, in the assay with OVCAR-4 ovarian, in the assay with IGROV1 ovarian, in the assay with MOLT-4 leukemia and in the assay on U251 CNS was above 100 µM throughout. Besides, the TGI with LOX IMVI melanoma, in the assay on M14 melanoma and in the assay on HCT-15 colon was above 100 µM each time.

`Oc1ccc(-c2cn3cc(C(F)(F)F)ccc3n2)cc1`: the TGI with EKVX NSCLC is above 100 µM; with HOP-62 NSCLC it was above 100 µM; with COLO 205 colon, above 100 µM; with HCC-2998 colon, 42.3 µM; in the assay with SR leukemia it was above 100 µM; in the assay with T-47D breast, 60.7 µM. In addition, the TGI in the assay with CAKI-1 renal, in the assay on MDA-N, in the assay with OVCAR-4 ovarian, with IGROV1 ovarian, with MOLT-4 leukemia and in the assay with U251 CNS was above 100 µM throughout. Besides, the TGI is above 100 µM in the assay with LOX IMVI melanoma, above 100 µM with M14 melanoma, above 100 µM in the assay with HCT-15 colon and 88 µM with NCI-H522 lung.

On to `CN(C)Cc1cc(N=Nc2ccc(Cl)cc2)ccc1O`, for which the TGI is 33.8 µM in the assay on EKVX NSCLC; 21.7 µM with HOP-62 NSCLC; 13.8 µM in the assay on COLO 205 colon; 28.6 µM with HCC-2998 colon; 39.8 µM with SR leukemia; 28.3 µM in the assay on T-47D breast. In addition, the TGI was 32.2 µM in the assay with CAKI-1 renal; 42.9 µM in the assay on MDA-N; 45.7 µM in the assay on OVCAR-4 ovarian; 32.3 µM with IGROV1 ovarian; 31.8 µM with MOLT-4 leukemia; 31.1 µM with U251 CNS. Also, the TGI came out at 23.5 µM in the assay on LOX IMVI melanoma, 53.1 µM in the assay with M14 melanoma, 29.1 µM with HCT-15 colon and 26.3 µM in the assay with NCI-H522 lung.

On to `COc1ccccc1NC(=S)Nc1cc(C)ccn1`, for which the TGI with EKVX NSCLC, in the assay on HOP-62 NSCLC, in the assay on COLO 205 colon, in the assay with SR leukemia, in the assay with RPMI-8226 leukemia and in the assay on T-47D breast was above 100 µM throughout. For the same compound, the TGI with CAKI-1 renal, in the assay with MDA-N, with OVCAR-4 ovarian, in the assay with IGROV1 ovarian, in the assay on MOLT-4 leukemia and with U251 CNS was above 100 µM each time. Besides, the TGI with LOX IMVI melanoma, in the assay on M14 melanoma, in the assay with HCT-15 colon and in the assay with NCI-H522 lung was above 100 µM each time.

As for `COCCOCCOCCOc1ccc(C(C#N)N(CCc2ccccc2)C(=O)c2cc(C(=O)N(CCc3ccccc3)C(C#N)c3ccc(OCCOCCOCCOC)cc3)cc(C(=O)N(CCc3ccccc3)C(C#N)c3ccc(OCCOCCOCCOC)cc3)c2)cc1` (centres undefined), the TGI in the assay on EKVX NSCLC, in the assay with HOP-62 NSCLC, with COLO 205 colon, in the assay with HCC-2998 colon, in the assay with SR leukemia and in the assay on T-47D breast was above 100 µM in each case. The TGI with MDA-N, with OVCAR-4 ovarian, in the assay on IGROV1 ovarian, in the assay with MOLT-4 leukemia, in the assay with U251 CNS and in the assay with LOX IMVI melanoma was above 100 µM throughout. In addition, the TGI in the assay with M14 melanoma, in the assay on HCT-15 colon and with NCI-H522 lung was above 100 µM throughout.

As to `N#Cc1c(N)c(C#N)c2c(c1-c1ccc(Cl)cc1)COc1ccccc1-2`, the TGI in the assay on EKVX NSCLC is 28.5 µM; with HOP-62 NSCLC it was 33.5 µM; in the assay on COLO 205 colon, above 100 µM; with HCC-2998 colon, 54.9 µM; with SR leukemia, 26.3 µM; in the assay with RPMI-8226 leukemia, 17.1 µM. Besides, the TGI in the assay on T-47D breast was 58.2 µM; with MDA-N, 66.4 µM; in the assay with OVCAR-4 ovarian it was 30 µM; with IGROV1 ovarian, 66.5 µM; in the assay on MOLT-4 leukemia, 25 µM; in the assay with U251 CNS it was 32.7 µM. The TGI in the assay with LOX IMVI melanoma, with M14 melanoma and with HCT-15 colon was above 100 µM each time.

Take `CC(C)(C)NC(=O)C12C3C4C1C1C2C3C41C(=O)NC(C)(C)C` (centres undefined): the TGI in the assay on EKVX NSCLC, in the assay on HOP-62 NSCLC, in the assay on COLO 205 colon, in the assay on HCC-2998 colon, in the assay on SR leukemia and in the assay with T-47D breast was above 100 µM each time. Moreover, the TGI in the assay with CAKI-1 renal, in the assay with MDA-N, with OVCAR-4 ovarian, with IGROV1 ovarian, in the assay with MOLT-4 leukemia and with U251 CNS was above 100 µM in each case. Also, the TGI with LOX IMVI melanoma, with M14 melanoma, in the assay with HCT-15 colon and in the assay with NCI-H522 lung was above 100 µM in each case.

Values taken from PubChem BioAssay (NCI).
